Measured values taken from patent US20220323405A1, “COMBINATION PRODUCT USING 3,4-METHYLENEDIOXYMETHAMPHETAMINE AND […] THE TREATMENT OF […] DISORDERS” (Universitätsspital Basel, priority 2021, published 2022).
Like-named read-outs stand apart in the source and are kept apart here.

Key:
healthy subjects [1] = details: doxazosin 8 mg/d for 3 days before MDMA 125 mg; cited from earlier work
humans [2] = details: cited from earlier work
healthy humans = experiment: Modeled co-administration of carvedilol with MDMA at the same time (estimates from pre-administration data); parameters: species or system human
From the text: FIGS. 11A-11C are graphs showing effects of MDMA alone, carvedilol alone, carvedilol prior to MDMA and carvedilol co-administered with MDMA at the same time (modeled data) on systolic (FIG. 11A), diastolic (FIG. 11B), and mean arterial blood pressure (FIG. 11C) in healthy humans; and
FIGS. 12A-12B are graphs showing effects of MDMA alone, carvedilol alone, carvedilol prior to MDMA and carvedilol co-administered with MDMA at the same time (modeled data) on heart rate (FIG. 12A) and body temperature (FIG. 12B) in healthy humans.
Therefore, the present invention further developed the carvedilol-pre-dosing approach into a simultaneous dosing approach. The study provided the information on the effects of carvedilol alone, and MDMA alone.
For blood pressure and heart rate the effects of carvedilol given simultaneously with MDMA were therefore estimated using the carvedilol and placebo mean values for each measured time point after administration and the mean carvedilol-placebo effect difference was calculated and then subtracted from the MDMA-placebo difference (FIGS. 11A-11C).
FIGS. 11A-11C and 12A-12B illustrate the beneficial effect of the present invention using co-administration of the adverse effect-reducing agent (carvedilol) and the empathogen/entactogen (MDMA). If carvedilol is administered before MDMA (carvedilol prior MDMA condition) as in the past study (Hysek et al., 2012a), a drop in blood pressure and heart rate can be observed in FIGS. 11A-11C and 12A-12B prior to the MDMA administration and consistent with the effect of carvedilol alone.
The graphical illustrations (FIGS. 11A-11C and 12A-12B) are based on estimates and modeling using existing data from the pre-administration of carvedilol. However, it is clear from illustrations FIGS. 11A-11C and 12A-12B that the invention provides an effective approach to reduce MDMA-induced cardiostimulant effects.

rats = details: cited from earlier work
healthy human subjects = details: MDMA 125 mg vs placebo, cited from earlier work
healthy subjects [3] = details: non-ambulating persons, 1.5-4 hours after administration vs placebo; p<0.001; cited from earlier work
healthy subjects [4] = details: cited from earlier work
humans [5] = details: carvedilol 50 mg; cited from earlier work
[6] = humans, after MDMA vs after pindolol-MDMA
[7] = carvedilol 50 mg 1 hour before MDMA 125 mg
[8] = carvedilol 50 mg 1 hour before MDMA 125 mg, listed as Carvedilol

COc1cc2nc(N3CCN(C(=O)C4COc5ccccc5O4)CC3)nc(N)c2cc1OC (stereo not shown) [Doxazosin, doxazosin]
Effect on MDMA-induced elevations in blood pressure (healthy subjects [1]): reduced
Effect on MDMA-induced elevations in body temperature (healthy subjects [1]): reduced

CC(C)NCC(O)COc1cccc2[nH]ccc12 (stereo not shown) [pindolol]
Effect on MDMA-induced increase in body temperature (humans [2]; pindolol pretreatment): no effect
Effect on adverse effects of MDMA (humans [2]; pindolol pretreatment): did not change

CNC(C)Cc1ccc2c(c1)OCO2 (stereo not shown) [MDMA, 3,4-methylenedioxymethamphetamine]
Body temperature (FIG. 12B) (healthy humans; MDMA alone): slightly increases
Norepinephrine levels (rats): induced
Peak mean arterial blood pressure (MAP) values (humans [2]; [6]): 115±11 mm Hg
Peak values (mean±SD) for heart rate (humans [2]; [6]): 84±13 beats/minute
Diastolic and systolic blood pressure (healthy human subjects): significantly increased
Heart rate (healthy human subjects): significantly increased
Pupil size (healthy human subjects): significantly increased
Rate pressure product (healthy human subjects): significantly increased
Body temperature (healthy human subjects; tympanic): significantly increased
Body temperature (healthy subjects [3]): elevated

COc1ccccc1OCCNCC(O)COc1cccc2[nH]c3ccccc3c12 (stereo not shown) [carvedilol]
Effect on MDMA-induced increase in body temperature (FIG. 12B) (healthy humans; carvedilol administered prior to MDMA and with MDMA, modeled data): reduce
Effect on MDMA-induced increase in heart rate and blood pressure (healthy humans; carvedilol with MDMA at the same time, modeled data): reduce the MDMA effect effectively and similarly
Effect on MDMA-induced elevations in blood pressure (healthy subjects [4]; [7]): effectively reduced
Effect on MDMA-induced elevations in body temperature (healthy subjects [4]; [7]): reduced
Effect on MDMA-induced elevations in heart rate (healthy subjects [4]; [7]): effectively reduced
Effect on plasma exposure to MDMA (healthy subjects [4]; [7]): did not alter
Effect on subjective effects of MDMA (good drug effects, drug liking) (healthy subjects [4]; [7]): did not alter
Effect on MDMA-induced elevations in blood pressure (healthy subjects [4]; [8]): reduced
Effect on MDMA-induced elevations in heart rate (healthy subjects [4]; [8]): reduced
Effect on subjective effects of MDMA (good drug effects, drug liking) (healthy subjects [4]; [8]): did not affect
Blood pressure and heart rate prior to the MDMA administration (healthy subjects [4]; carvedilol prior MDMA condition): drop
Effect on established MDMA-induced hyperthermia (rats; administered 1 hour after MDMA): completely reversed
Effect on MDMA-induced hyperthermic (thermogenic) response (rats; administered before or after MDMA): prevented
Effect on smoked cocaine-induced increases in heart rate and blood pressure (humans [5]): attenuate
